Laboratory results: patent US12404262B2 (priority 2021, dated 2025)
≈ marks a conversion by molar mass, not a printed value.

Tests used:
physchem = conditions: 25 °C, fassif, thermodynamic from solid
[1] = 1.0% DMSO, 24-hour incubation at ambient temperature, maximum theoretical 100 μM; for pH 2 solubility: 0.1N HCl, first value of the cell; for pH 7 solubility: 1×PBS buffer (pH 7.4), second value of the cell
[2] = Solubility in simulated intestinal fluids (FaSSIF/FeSSIF); conditions: 25 °C, thermodynamic from solid
[3] = fasted state simulated intestinal fluid (FaSSIF), fassif
[4] = fed state simulated intestinal fluid (FeSSIF), fessif

| pH 2 solubility [1] | pH 7 solubility [1] | solubility [2, 3] [µg/mL] | solubility [2, 4] [µg/mL] | SMILES | solubility (physchem) [µg/mL] |
| --- | --- | --- | --- | --- | --- |
| 1 μM | 18 μM | 700 (≈ 613 µM) | 246 (≈ 216 µM) | CC(C)(C#Cc1ccc(-c2ccc(Cl)c3c(N(C(=O)N[C@@H](CCC(=O)O)C(=O)O)S(C)(=O)=O)nn(CC(F)(F)F)c23)c([C@H](Cc2cc(F)cc(F)c2)NC(=O)Cn2nc(C(F)(F)F)c3c2C(F)(F)[C@@H]2C[C@H]32)n1)S(C)(=O)=O [Compound 68, ((4-chloro-7-(2-((S)-1-(2-((3bS,4aR)-5,5-difluoro-3-(trifluoromethyl)-3b,4,4a,5-tetrahydro-1H-cyclopropa[3,4]cyclopenta[1,2-c]pyrazol-1-yl)acetamido)-2-(3,5-difluorophenyl)ethyl)-6-(3-methyl-3-(methylsulfonyl)but-1-yn-1-yl)pyridin-3-yl)-1-(2,2,2-trifluoroethyl)-1H-indazol-3-yl)(methylsulfonyl)carbamoyl)-L-glutamic acid] | – |
| 3 μM | 42 μM | 1080 (≈ 930 µM) | 1590 (≈ 1370 µM) | CC(C)(C#Cc1ccc(-c2ccc(Cl)c3c(N(C(=O)NC(CP(=O)(O)O)C(=O)O)S(C)(=O)=O)nn(CC(F)(F)F)c23)c([C@H](Cc2cc(F)cc(F)c2)NC(=O)Cn2nc(C(F)(F)F)c3c2C(F)(F)[C@@H]2C[C@H]32)n1)S(C)(=O)=O (stereo partly drawn) [Compound 56, 2-(3-(4-chloro-7-(2-((S)-1-(2-((3bS,4aR)-5,5-difluoro-3-(trifluoromethyl)-3b,4,4a,5-tetrahydro-1H-cyclopropa[3,4]cyclopenta[1,2-c]pyrazol-1-yl)acetamido)-2-(3,5-difluorophenyl)ethyl)-6-(3-methyl-3-(methylsulfonyl)but-1-yn-1-yl)pyridin-3-yl)-1-(2,2,2-trifluoroethyl)-1H-indazol-3-yl)-3-(methylsulfonyl)ureido)-3-phosphonopropanoic acid] | – |
| 78 μM | 71 μM | 120 (≈ 109 µM) | 153 (≈ 139 µM) | CC(C)(C#Cc1ccc(-c2ccc(Cl)c3c(N(C(=O)OCCNC(=N)N)S(C)(=O)=O)nn(CC(F)(F)F)c23)c([C@H](Cc2cc(F)cc(F)c2)NC(=O)Cn2nc(C(F)(F)F)c3c2C(F)(F)[C@@H]2C[C@H]32)n1)S(C)(=O)=O [Compound 123, 2-guanidinoethyl (4-chloro-7-(2-((S)-1-(2-((3bS,4aR)-5,5-difluoro-3-(trifluoromethyl)-3b,4,4a,5-tetrahydro-1H-cyclopropa[3,4]cyclopenta[1,2-c]pyrazol-1-yl)acetamido)-2-(3,5-difluorophenyl)ethyl)-6-(3-methyl-3-(methylsulfonyl)but-1-yn-1-yl)pyridin-3-yl)-1-(2,2,2-trifluoroethyl)-1H-indazol-3-yl)(methylsulfonyl)carbamate] | – |
| 1 μM | 8 μM | 813 (≈ 740 µM) | 120 (≈ 109 µM) | CC(C)(C#Cc1ccc(-c2ccc(Cl)c3c(N(C(=O)N[C@@H](CO)C(=O)O)S(C)(=O)=O)nn(CC(F)(F)F)c23)c([C@H](Cc2cc(F)cc(F)c2)NC(=O)Cn2nc(C(F)(F)F)c3c2C(F)(F)[C@@H]2C[C@H]32)n1)S(C)(=O)=O [Compound 58, ((4-chloro-7-(2-((S)-1-(2-((3bS,4aR)-5,5-difluoro-3-(trifluoromethyl)-3b,4,4a,5-tetrahydro-1H-cyclopropa[3,4]cyclopenta[1,2-c]pyrazol-1-yl)acetamido)-2-(3,5-difluorophenyl)ethyl)-6-(3-methyl-3-(methylsulfonyl)but-1-yn-1-yl)pyridin-3-yl)-1-(2,2,2-trifluoroethyl)-1H-indazol-3-yl)(methylsulfonyl)carbamoyl)-L-serine] | – |
| 1 μM | 81 μM | 1580 (≈ 1400 µM) | 247 (≈ 219 µM) | CC(C)(C#Cc1ccc(-c2ccc(Cl)c3c(N(C(=O)N[C@@H](CC(=O)O)C(=O)O)S(C)(=O)=O)nn(CC(F)(F)F)c23)c([C@H](Cc2cc(F)cc(F)c2)NC(=O)Cn2nc(C(F)(F)F)c3c2C(F)(F)[C@@H]2C[C@H]32)n1)S(C)(=O)=O [Compound 69, ((4-chloro-7-(2-((S)-1-(2-((3bS,4aR)-5,5-difluoro-3-(trifluoromethyl)-3b,4,4a,5-tetrahydro-1H-cyclopropa[3,4]cyclopenta[1,2-c]pyrazol-1-yl)acetamido)-2-(3,5-difluorophenyl)ethyl)-6-(3-methyl-3-(methylsulfonyl)but-1-yn-1-yl)pyridin-3-yl)-1-(2,2,2-trifluoroethyl)-1H-indazol-3-yl)(methylsulfonyl)carbamoyl)-L-aspartic acid] | – |
| 1 μM | 16 μM | 7 (≈ 6.21 µM) | 162 (≈ 144 µM) | CC(C)(C#Cc1ccc(-c2ccc(Cl)c3c(N(C(=O)OCCNC(=O)C(=O)O)S(C)(=O)=O)nn(CC(F)(F)F)c23)c([C@H](Cc2cc(F)cc(F)c2)NC(=O)Cn2nc(C(F)(F)F)c3c2C(F)(F)[C@@H]2C[C@H]32)n1)S(C)(=O)=O [Compound 122, 2-((2-(((4-chloro-7-(2-((S)-1-(2-((3bS,4aR)-5,5-difluoro-3-(trifluoromethyl)-3b,4,4a,5-tetrahydro-1H-cyclopropa[3,4]cyclopenta[1,2-c]pyrazol-1-yl)acetamido)-2-(3,5-difluorophenyl)ethyl)-6-(3-methyl-3-(methylsulfonyl)but-1-yn-1-yl)pyridin-3-yl)-1-(2,2,2-trifluoroethyl)-1H-indazol-3-yl)(methylsulfonyl)carbamoyl)oxy)ethyl)amino)-2-oxoacetic acid] | – |
| 1 μM | 77 μM | 778 (≈ 686 µM) | 1250 (≈ 1100 µM) | CC(C)(C#Cc1ccc(-c2ccc(Cl)c3c(N(C(=O)OCCCP(=O)(O)O)S(C)(=O)=O)nn(CC(F)(F)F)c23)c([C@H](Cc2cc(F)cc(F)c2)NC(=O)Cn2nc(C(F)(F)F)c3c2C(F)(F)[C@@H]2C[C@H]32)n1)S(C)(=O)=O [Compound 112, (3-(((4-chloro-7-(2-((S)-1-(2-((3bS,4aR)-5,5-difluoro-3-(trifluoromethyl)-3b,4,4a,5-tetrahydro-1H-cyclopropa[3,4]cyclopenta[1,2-c]pyrazol-1-yl)acetamido)-2-(3,5-difluorophenyl)ethyl)-6-(3-methyl-3-(methylsulfonyl)but-1-yn-1-yl)pyridin-3-yl)-1-(2,2,2-trifluoroethyl)-1H-indazol-3-yl)(methylsulfonyl)carbamoyl)oxy)propyl)phosphonic acid] | – |
| 1 μM | 18 μM | > 2480 | 299 (≈ 236 µM) | CN(C(=O)N(c1nn(CC(F)(F)F)c2c(-c3ccc(C#CC(C)(C)S(C)(=O)=O)nc3[C@H](Cc3cc(F)cc(F)c3)NC(=O)Cn3nc(C(F)(F)F)c4c3C(F)(F)[C@@H]3C[C@H]43)ccc(Cl)c12)S(C)(=O)=O)[C@@H](CCC(=O)O)C(=O)OCOP(=O)(O)O [Compound 87, (S)-4-(3-(4-chloro-7-(2-((S)-1-(2-((3bS,4aR)-5,5-difluoro-3-(trifluoromethyl)-3b,4,4a,5-tetrahydro-1H-cyclopropa[3,4]cyclopenta[1,2-c]pyrazol-1-yl)acetamido)-2-(3,5-difluorophenyl)ethyl)-6-(3-methyl-3-(methylsulfonyl)but-1-yn-1-yl)pyridin-3-yl)-1-(2,2,2-trifluoroethyl)-1H-indazol-3-yl)-1-methyl-3-(methylsulfonyl)ureido)-5-oxo-5-((phosphonooxy)methoxy)pentanoic acid] | – |
| <1/1 μM | <1/1 μM | 481 (≈ 408 µM) | 189 (≈ 160 µM) | CC(C)(C#Cc1ccc(-c2ccc(Cl)c3c(N(C(=O)OCC(=O)OCOP(=O)(O)O)S(C)(=O)=O)nn(CC(F)(F)F)c23)c([C@H](Cc2cc(F)cc(F)c2)NC(=O)Cn2nc(C(F)(F)F)c3c2C(F)(F)[C@@H]2C[C@H]32)n1)S(C)(=O)=O [Compound 94, (phosphonooxy)methyl 2-(((4-chloro-7-(2-((S)-1-(2-((3bS,4aR)-5,5-difluoro-3-(trifluoromethyl)-3b,4,4a,5-tetrahydro-1H-cyclopropa[3,4]cyclopenta[1,2-c]pyrazol-1-yl)acetamido)-2-(3,5-difluorophenyl)ethyl)-6-(3-methyl-3-(methylsulfonyl)but-1-yn-1-yl)pyridin-3-yl)-1-(2,2,2-trifluoroethyl)-1H-indazol-3-yl)(methylsulfonyl)carbamoyl)oxy)acetate] | – |

| SMILES | pH 2 solubility [1] | pH 7 solubility [1] | solubility [2, 3] [µg/mL] | solubility [2, 4] [µg/mL] | solubility (physchem) [µg/mL] |
| --- | --- | --- | --- | --- | --- |
| CC(C)(C#Cc1ccc(-c2ccc(Cl)c3c(N(C(=O)NCCP(=O)(O)O)S(C)(=O)=O)nn(CC(F)(F)F)c23)c([C@H](Cc2cc(F)cc(F)c2)NC(=O)Cn2nc(C(F)(F)F)c3c2C(F)(F)[C@@H]2C[C@H]32)n1)S(C)(=O)=O [Compound 54, (2-(3-(4-chloro-7-(2-((S)-1-(2-((3bS,4aR)-5,5-difluoro-3-(trifluoromethyl)-3b,4,4a,5-tetrahydro-1H-cyclopropa[3,4]cyclopenta[1,2-c]pyrazol-1-yl)acetamido)-2-(3,5-difluorophenyl)ethyl)-6-(3-methyl-3-(methylsulfonyl)but-1-yn-1-yl)pyridin-3-yl)-1-(2,2,2-trifluoroethyl)-1H-indazol-3-yl)-3-(methylsulfonyl)ureido)ethyl)phosphonic acid] | 1 μM | 41 μM | – | – | 416 (≈ 372 µM) |
| CC(C)(C#Cc1ccc(-c2ccc(Cl)c3c(N(C(=O)OCCN(CC(=O)O)C(=O)OCOP(=O)(O)O)S(C)(=O)=O)nn(CC(F)(F)F)c23)c([C@H](Cc2cc(F)cc(F)c2)NC(=O)Cn2nc(C(F)(F)F)c3c2C(F)(F)[C@@H]2C[C@H]32)n1)S(C)(=O)=O [Compound 134] | 1 μM | 100 μM | – | – | 2640 (≈ 2080 µM) |
